Assay results as given in ChEMBL document CHEMBL5321287, “Discovery, Synthesis, and Evaluation of Novel Dual Inhibitors of a Vascular Endothelial Growth Factor Receptor and Poly(ADP-Ribose) Polymerase for BRCA Wild-Type Breast Cancer Therapy” (J Med Chem, 2023).
Active and inactive are the calls of the source.

Experiments:
[1] = test system: MCF7; assay: Antimigratory activity in human MCF7 cells assessed as upregulation of E-cadherin level at 4 uM by DAPI staining based immunofluorescence analysis; type: functional, cell-based
[2] = test system: MDA-MB-231; assay: Inhibition of colony formation in human MDA-MB-231 cells at 4 uM incubated for 10 days in presence of 1:1 of compound:Olaparib by crystal violet staining based assay; type: functional, cell-based; conditions: time 10.0 day
[3] = test system: MDA-MB-231; assay: Antiinvasive activity against human MDA-MB-231 cells at 4 uM incubated for 12 hrs in presence of 1:1 of compound:Olaparib by transwell assay; type: functional, cell-based
[4] = test system: MCF7; assay: Inhibition of colony formation in human MCF7 cells at 4 uM incubated for 10 days in presence of 1:1 of compound:Olaparib by crystal violet staining based assay; type: functional, cell-based; conditions: time 10.0 day
[5] = test system: MDA-MB-231; assay: Antimigratory activity in human MDA-MB-231 cells assessed as downregulation of MMP-2 level at 4 uM in presence of 1:1 of compound:Olaparib by DAPI staining based immunofluorescence analysis; type: functional, cell-based
[6] = test system: MCF7; assay: Antimigratory activity in human MCF7 cells assessed as downregulation of MMP-2 level at 4 uM by DAPI staining based immunofluorescence analysis; type: functional, cell-based
[7] = test system: MDA-MB-231; assay: Induction of cell cycle arrest at S phase in human MDA-MB-231 cells at 4 uM by Annexin-V-FLUOS staining based flow cytometry; type: functional
[8] = test system: MDA-MB-231; assay: Induction of apoptosis in human MDA-MB-231 cells assessed as increase in cleaved caspase-3 level at 4 uM incubated for 2 days in presence of 1:1 of compound:Olaparib by immunoblot analysis; type: functional, cell-based; conditions: time 2.0 day
[9] = test system: MDA-MB-231; assay: Downregulation of PAR expression in human MDA-MB-231 cells xenografted in BALB/c nude mouse at 25 to 50 mg/kg, po for 14 days in presence of 1:1 of compound:Olaparib by Western blot analysis; type: functional, organism-based; conditions: dose 25-50 mg/kg, time 14.0 day
[10] = test system: MCF7; assay: Induction of DNA damage in human MCF7 cells assessed as increase in comet tail length at 4 uM in presence 1:1 of Olaparib by alkaline comet assay; type: functional, cell-based
[11] = test system: MCF7; assay: Antimigratory activity against human MCF7 cells at 4 uM incubated for 1 hr in presence of 1:1 of compound:Olaparib by wound healing assay; type: functional, cell-based
[12] = test system: MDA-MB-231; assay: Induction of DNA damage in human MDA-MB-231 cells assessed as increase in gamma-H2AX level at 4 uM incubated for 48 hrs by DAPI staining based immunofluorescence analysis; type: functional, cell-based
[13] = test system: MCF7; assay: Antimigratory activity in human MCF7 cells assessed as upregulation of E-cadherin level at 4 uM incubated for 2 days in presence of 1:1 of compound:Olaparib by immunoblot analysis; type: functional, cell-based; conditions: time 2.0 day
[14] = test system: MCF7; assay: Antimigratory activity in human MCF7 cells assessed as upregulation of E-cadherin level at 4 uM incubated for 2 days by immunoblot analysis; type: functional, cell-based; conditions: time 2.0 day
[15] = test system: MCF7; assay: Antiproliferation activity against human MCF7 cells assessed as decrease in Ki67 expression at 4 uM incubated for 48 hrs in presence of 1:1 of compound:Olaparib by immunofluorescence analysis; type: functional, cell-based
[16] = test system: MCF7; assay: Antimigratory activity in human MCF7 cells assessed as upregulation of E-cadherin level at 4 uM in presence of 1:1 of compound:Olaparib by DAPI staining based immunofluorescence analysis; type: functional, cell-based
[17] = test system: MCF7; assay: Antimigratory activity in human MCF7 cells assessed as downregulation of MMP-2 level at 4 uM incubated for 2 days by immunoblot analysis; type: functional, cell-based; conditions: time 2.0 day
[18] = test system: MDA-MB-231; assay: Antimetastatic activity against human MDA-MB-231 cells xenografted in lungs of BALB/c nude mouse assessed as decrease in lung metastatic nodules at 50 mg/kg administered once a day measured after 14 days in presence of 1:1 of compound:Olaparib by H and E staining based analysis; type: functional, organism-based; conditions: time 14.0 day
[19] = test system: MCF7; assay: Induction of apoptosis in human MCF7 cells assessed as increase in Bax level at 4 uM incubated for 2 days in presence of 1:1 of compound:Olaparib by immunoblot analysis; type: functional, cell-based; conditions: time 2.0 day
[20] = test system: MDA-MB-231; assay: Antimigratory activity in human MDA-MB-231 cells assessed as downregulation of MMP-2 level at 4 uM by DAPI staining based immunofluorescence analysis; type: functional, cell-based
[21] = test system: MDA-MB-231; assay: Induction of DNA damage in human MDA-MB-231 cells xenografted in BALB/c nude mouse assessed as increase in gamma-H2AX level at 50 mg/kg, po for 14 days in presence of 1:1 of compound:Olaparib by Western blot analysis; type: functional, organism-based; conditions: time 14.0 day
[22] = test system: MDA-MB-231; assay: Induction of HR DNA repair in human MDA-MB-231 cells xenografted in BALB/c nude mouse assessed as decrease in FOXM1 level at 50 mg/kg, po for 14 days in presence of 1:1 of compound:Olaparib by Western blot analysis; type: functional, organism-based; conditions: time 14.0 day
[23] = test system: MDA-MB-231; assay: Induction of HR DNA repair in human MDA-MB-231 cells xenografted in BALB/c nude mouse assessed as decrease in BRCA1 level at 50 mg/kg, po for 14 days in presence of 1:1 of compound:Olaparib by Western blot analysis; type: functional, organism-based; conditions: time 14.0 day
[24] = biological target: Poly [ADP-ribose] polymerase 1 (Homo sapiens, UniProt P09874); assay: Inhibition of PARP1 in human MDA-MB-231 cells xenografted in BALB/c nude mouse at 50 mg/kg, po for 14 days in presence of 1:1 of compound:Olaparib by H and E staining based IHC analysis; type: organism-based; conditions: time 14.0 day
Poly [ADP-ribose] polymerase 1, sequence (P09874 whole entry): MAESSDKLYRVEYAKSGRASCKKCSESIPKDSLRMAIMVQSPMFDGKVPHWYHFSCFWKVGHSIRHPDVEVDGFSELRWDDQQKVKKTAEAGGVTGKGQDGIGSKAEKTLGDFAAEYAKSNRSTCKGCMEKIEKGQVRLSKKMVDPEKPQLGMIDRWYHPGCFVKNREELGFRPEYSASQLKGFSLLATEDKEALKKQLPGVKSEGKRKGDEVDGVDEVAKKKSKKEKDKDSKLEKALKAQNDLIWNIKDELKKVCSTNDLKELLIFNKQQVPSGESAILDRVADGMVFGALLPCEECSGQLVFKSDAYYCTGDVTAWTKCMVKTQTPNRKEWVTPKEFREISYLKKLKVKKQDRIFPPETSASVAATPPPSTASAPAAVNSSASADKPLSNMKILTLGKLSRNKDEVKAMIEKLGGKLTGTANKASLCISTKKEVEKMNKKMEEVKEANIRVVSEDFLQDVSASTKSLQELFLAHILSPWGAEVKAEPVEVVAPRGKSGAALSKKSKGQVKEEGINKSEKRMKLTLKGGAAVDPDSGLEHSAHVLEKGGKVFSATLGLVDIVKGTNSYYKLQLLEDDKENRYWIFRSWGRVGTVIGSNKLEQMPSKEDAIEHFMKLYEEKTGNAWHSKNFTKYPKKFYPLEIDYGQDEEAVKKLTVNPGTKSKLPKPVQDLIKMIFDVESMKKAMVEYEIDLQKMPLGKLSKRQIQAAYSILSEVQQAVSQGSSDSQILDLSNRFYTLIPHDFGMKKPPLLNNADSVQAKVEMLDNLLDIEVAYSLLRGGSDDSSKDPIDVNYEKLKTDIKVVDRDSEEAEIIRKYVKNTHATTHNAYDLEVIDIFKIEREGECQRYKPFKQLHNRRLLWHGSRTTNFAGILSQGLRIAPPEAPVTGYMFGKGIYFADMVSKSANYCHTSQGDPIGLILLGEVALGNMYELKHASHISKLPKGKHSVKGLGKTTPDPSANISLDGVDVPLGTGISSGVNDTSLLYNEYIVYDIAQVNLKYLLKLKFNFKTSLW

[25] = test system: MDA-MB-231; assay: Induction of apoptosis in human MDA-MB-231 cells assessed as increase in Bax level at 4 uM incubated for 2 days in presence of 1:1 of compound:Olaparib by immunoblot analysis; type: functional, cell-based; conditions: time 2.0 day
[26] = biological target: Vascular endothelial growth factor receptor 2 (Homo sapiens, UniProt P35968); conditions: MDA-MB-231, dose 50.0 mg/kg, route po, time 14.0 day
Vascular endothelial growth factor receptor 2, sequence (P35968 whole entry): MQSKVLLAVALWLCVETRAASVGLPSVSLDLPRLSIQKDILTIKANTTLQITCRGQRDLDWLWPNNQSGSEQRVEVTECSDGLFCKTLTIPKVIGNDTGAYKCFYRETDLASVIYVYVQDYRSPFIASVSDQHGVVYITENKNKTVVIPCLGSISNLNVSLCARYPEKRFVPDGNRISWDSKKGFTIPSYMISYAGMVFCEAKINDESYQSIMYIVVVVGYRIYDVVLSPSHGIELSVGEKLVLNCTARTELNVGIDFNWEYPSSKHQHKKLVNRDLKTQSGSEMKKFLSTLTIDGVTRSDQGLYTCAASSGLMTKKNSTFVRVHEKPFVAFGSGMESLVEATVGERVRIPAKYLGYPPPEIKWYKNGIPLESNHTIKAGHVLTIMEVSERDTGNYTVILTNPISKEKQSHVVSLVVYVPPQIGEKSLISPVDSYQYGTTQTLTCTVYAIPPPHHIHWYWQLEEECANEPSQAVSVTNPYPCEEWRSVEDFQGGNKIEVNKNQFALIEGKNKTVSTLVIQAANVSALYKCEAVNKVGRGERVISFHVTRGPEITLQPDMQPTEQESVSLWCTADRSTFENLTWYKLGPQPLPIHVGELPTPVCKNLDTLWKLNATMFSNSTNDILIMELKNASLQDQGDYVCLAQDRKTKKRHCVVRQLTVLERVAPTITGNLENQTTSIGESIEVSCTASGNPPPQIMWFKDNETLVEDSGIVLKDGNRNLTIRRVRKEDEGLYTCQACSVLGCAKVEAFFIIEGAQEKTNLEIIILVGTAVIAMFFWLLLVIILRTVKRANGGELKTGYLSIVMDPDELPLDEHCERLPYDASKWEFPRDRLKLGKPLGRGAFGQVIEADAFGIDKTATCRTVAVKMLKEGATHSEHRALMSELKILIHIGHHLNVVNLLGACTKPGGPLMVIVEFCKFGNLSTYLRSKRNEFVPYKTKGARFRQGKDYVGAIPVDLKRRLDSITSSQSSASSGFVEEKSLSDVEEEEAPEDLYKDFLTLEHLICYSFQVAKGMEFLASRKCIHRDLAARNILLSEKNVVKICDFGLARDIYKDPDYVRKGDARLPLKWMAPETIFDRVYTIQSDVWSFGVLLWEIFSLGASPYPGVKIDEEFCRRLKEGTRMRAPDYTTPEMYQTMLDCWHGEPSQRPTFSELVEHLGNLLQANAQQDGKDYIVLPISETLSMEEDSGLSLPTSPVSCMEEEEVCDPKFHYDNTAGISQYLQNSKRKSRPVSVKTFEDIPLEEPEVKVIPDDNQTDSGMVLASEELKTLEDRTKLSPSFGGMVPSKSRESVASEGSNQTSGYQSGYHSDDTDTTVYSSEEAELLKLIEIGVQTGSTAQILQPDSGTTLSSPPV

[27] = test system: MCF7; assay: Induction of cell cycle arrest at G2/M phase in human MCF7 cells at 4 uM by Annexin-V-FLUOS staining based flow cytometry; type: functional
[28] = test system: MCF7; assay: Induction of DNA damage in human MCF7 cells assessed as increase in gamma-H2AX level at 4 uM incubated for 48 hrs in presence of 1:1 of compound:Olaparib by DAPI staining based immunofluorescence analysis; type: functional, cell-based
[29] = test system: MDA-MB-231; assay: Induction of HR DNA repair in human MDA-MB-231 cells xenografted in BALB/c nude mouse assessed as decrease in BRCA1 level at 50 mg/kg, po for 14 days in presence of 1:1 of compound:Olaparib by H and E staining based IHC analysis; type: functional, organism-based; conditions: time 14.0 day
[30] = test system: MDA-MB-231; assay: Induction of cell cycle arrest at G2/M phase in human MDA-MB-231 cells at 4 uM in presence of 1:1 of compound:Olaparib by Annexin-V-FLUOS staining based flow cytometry; type: functional
[31] = test system: MDA-MB-231; assay: Induction of DNA damage in human MDA-MB-231 cells assessed as increase in gamma-H2AX level at 4 uM incubated for 48 hrs in presence of 1:1 of compound:Olaparib by DAPI staining based immunofluorescence analysis; type: functional, cell-based
[32] = test system: MDA-MB-231; assay: Induction of HR DNA repair in human MDA-MB-231 cells xenografted in BALB/c nude mouse assessed as decrease in RAD51 level at 50 mg/kg, po for 14 days in presence of 1:1 of compound:Olaparib by Western blot analysis; type: functional, organism-based; conditions: time 14.0 day

Cc1ccc(Nc2nccc(N(C)c3ccc4c(C)n(C)nc4c3)n2)cc1S(N)(=O)=O [PAZOPANIB]
active: Activity [1] | inhibition [2] | Activity [3] | inhibition [4] | Activity [5] | Activity [6] | Activity [7] | Activity [8] | Activity [9] | Activity [10] | Activity [11] | Activity [12] | Activity [13] | Activity [14] | Activity [15] | Activity [16] | Activity [17] | Activity [18] | Activity [19] | Activity [20] | Activity [21] | Activity [22] | Activity [23] | inhibition [24] | Activity [25] | inhibition [26] | Activity [27] | Activity [28] | Activity [29] | Activity [30] | Activity [31] | Activity [32]
